From US6706663B2, “Herbicidal 3-heterocyclic substituted benzisothiazole and benzisoxazole compounds” (Wyeth, priority 2000, dated 2004)

How the values were obtained:
SETVI (Setaria viridis) [1] = test: Postemergence herbicidal evaluation; format: in vivo, (L.) Beau; conditions: postemergence
In short: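 Postemergence foliar spray on two-week-old seedlings, dose equivalent to about 0.0040 to 1.000 kg/ha. Ratings use a 0-9 visual scale relative to control at four to five weeks.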

[2] = system: IPOHE (Ipomoea hederacea); test: Postemergence herbicidal evaluation; format: in vivo, (L.) Jacq.; conditions: postemergence
In short: (§1)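 Seedlings grown about two weeks in flats, sprayed, then kept under standard greenhouse care. Rated visually 4–5 weeks after treatment on a 0–9 scale (stand, vigour, malformation, size, chlorosis, overall appearance) relative to untreated control; repeat tests averaged.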

[3] = system: ABUTH (Abutilon theophrasti); test: Preemergence herbicidal evaluation; format: in vivo, Medic.; conditions: preemergence, rated 4-5 weeks after treatment
[4] = system: ECHCG (Echinochloa crus-galli); test: Preemergence herbicidal evaluation; format: in vivo, (L.) Beau; conditions: preemergence, rated 4-5 weeks after treatment
In short: (§2)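 Scores (0–9) reflect visual comparison with control plants for stand, vigor, malformation, size and chlorosis. Seeds in potting soil received a post-planting spray of compound in aqueous acetone and grew in a greenhouse until assessment 4–5 weeks later.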

SETVI (Setaria viridis) [5] = test: Preemergence herbicidal evaluation; format: in vivo, (L.) Beau; conditions: preemergence, rated 4-5 weeks after treatment
In short: as §2

GALAP (Galium aparine) [6] = test: Preemergence herbicidal evaluation; format: in vivo; conditions: preemergence, rated 4-5 weeks after treatment
In short: as §2

GALAP (Galium aparine) [7] = test: Postemergence herbicidal evaluation; format: in vivo; conditions: postemergence
In short: as §1

[8] = system: CASOB (Cassia obtusifolia); test: Preemergence herbicidal evaluation; format: in vivo, L.; conditions: preemergence, rated 4-5 weeks after treatment
In short: as §2

[9] = system: CHEAL (Chenopodium album); test: Preemergence herbicidal evaluation; format: in vivo, L.; conditions: preemergence, rated 4-5 weeks after treatment
In short: as §2

[10] = system: AMBEL (Ambrosia artemisifolia); test: Preemergence herbicidal evaluation; format: in vivo, L.; conditions: preemergence, rated 4-5 weeks after treatment
In short: as §2

[11] = system: TRZAWR (Wheat, Winter, cv Riband); test: Postemergence herbicidal evaluation; format: in vivo, Triticum aestivum; conditions: postemergence
In short: as §1

ORYSAT (Rice, Tebonnet) = test: Flooded paddy, post-transplant rice tolerance; format: in vivo, Oryza sativa, (L.) Tebonnet; conditions: flooded paddy, post-transplant rice, rated 3-4 weeks after treatment, 0-9 rating scale
In short: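 Two ten-day-old seedlings were transplanted into silt loam, flooded and held at 1.5 to 3 cm water above the soil before herbicide treatment. Pots stayed in the greenhouse at that water level. Injury was scored visually on a 0-9 scale versus untreated control.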

[12] = system: GLXMAW (Soybean, Williams); test: Postemergence herbicidal evaluation; format: in vivo, Glycine max, (L.) Merr. cv Williams; conditions: postemergence
In short: as §1

[13] = system: MOOVA (Monochoria vaginalis); test: Flooded paddy, preemergence weed control; format: in vivo, Presl.; conditions: rated 3-4 weeks after treatment, 0-9 rating scale
In short: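 Seeds or propagules were planted in the top 0.5 cm of silt loam soil and kept flooded 1.5–3 cm above the surface throughout, then held in the greenhouse. Injury was rated visually on a 0–9 scale against untreated controls, covering stand, vigor, malformation, size and chlorosis.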

[14] = system: ABUTH (Abutilon theophrasti); test: Postemergence herbicidal evaluation; format: in vivo, Medic.; conditions: postemergence
In short: as §1

ZEAMX (Corn, Field) = test: Preemergence herbicidal evaluation; format: in vivo, Zea mays, L.; conditions: preemergence, rated 4-5 weeks after treatment

## Cn1c(C(F)(F)F)cc(=O)n(-c2ccc3snc(-c4sccc4CO)c3c2)c1=O [Compound 85, 3-[3-[3-(hydroxymethyl)-2-thienyl]-1,2-benzisothiazol-5-yl]-1-methyl-6-(trifluoromethyl)uracil]
SETVI (Setaria viridis) [1]; rate 0.0320 kg/ha
  SETVI herbicidal rating: 5.0
SETVI (Setaria viridis) [1]; rate 0.0620 kg/ha
  SETVI herbicidal rating: 9.0
[2]; rate 0.0320 kg/ha
  IPOHE herbicidal rating: 9.0
[2]; rate 0.0620 kg/ha
  IPOHE herbicidal rating: 9.0
[3]; rate 0.0620 kg/ha
  Preemergence herbicidal rating ABUTH: 9.0
[3]; rate 0.1250 kg/ha
  Preemergence herbicidal rating ABUTH: 9.0
[3]; rate 0.2500 kg/ha
  Preemergence herbicidal rating ABUTH: 9.0
[4]; rate 0.0620 kg/ha
  Preemergence herbicidal rating ECHCG: 0.0
[4]; rate 0.1250 kg/ha
  Preemergence herbicidal rating ECHCG: 3.0
[4]; rate 0.2500 kg/ha
  Preemergence herbicidal rating ECHCG: 4.0
SETVI (Setaria viridis) [5]; rate 0.0620 kg/ha
  Preemergence herbicidal rating SETVI: 4.0
SETVI (Setaria viridis) [5]; rate 0.1250 kg/ha
  Preemergence herbicidal rating SETVI: 9.0
SETVI (Setaria viridis) [5]; rate 0.2500 kg/ha
  Preemergence herbicidal rating SETVI: 7.0
GALAP (Galium aparine) [6]; rate 0.0620 kg/ha
  Preemergence herbicidal rating GALAP: 4.0
GALAP (Galium aparine) [6]; rate 0.1250 kg/ha
  Preemergence herbicidal rating GALAP: 6.0
GALAP (Galium aparine) [6]; rate 0.2500 kg/ha
  Preemergence herbicidal rating GALAP: 9.0
GALAP (Galium aparine) [7]; rate 0.0320 kg/ha
  GALAP herbicidal rating: 4.0
GALAP (Galium aparine) [7]; rate 0.0620 kg/ha
  GALAP herbicidal rating: 6.0
[8]; rate 0.0620 kg/ha
  Preemergence herbicidal rating CASOB: 0.0
[8]; rate 0.1250 kg/ha
  Preemergence herbicidal rating CASOB: 3.0
[8]; rate 0.2500 kg/ha
  Preemergence herbicidal rating CASOB: 5.0
[9]; rate 0.0620 kg/ha
  Preemergence herbicidal rating CHEAL: 9.0
[9]; rate 0.1250 kg/ha
  Preemergence herbicidal rating CHEAL: 9.0
[9]; rate 0.2500 kg/ha
  Preemergence herbicidal rating CHEAL: 9.0
[10]; rate 0.0620 kg/ha
  Preemergence herbicidal rating AMBEL: 8.0
[10]; rate 0.1250 kg/ha
  Preemergence herbicidal rating AMBEL: 9.0
[10]; rate 0.2500 kg/ha
  Preemergence herbicidal rating AMBEL: 9.0
[11]; rate 0.0320 kg/ha
  TRZAWR herbicidal rating: 2.0
[11]; rate 0.0620 kg/ha
  TRZAWR herbicidal rating: 3.5
ORYSAT (Rice, Tebonnet); rate 0.0080 kg/ha
  ORYSAT herbicidal rating (transplanted rice tolerance): 0.0
ORYSAT (Rice, Tebonnet); rate 0.0320 kg/ha
  ORYSAT herbicidal rating (transplanted rice tolerance): 1.5
ORYSAT (Rice, Tebonnet); rate 0.1250 kg/ha
  herbicidal rating, ORYSAT (rice tolerance): 5.5
[12]; rate 0.0320 kg/ha
  GLXMAW herbicidal rating: 3.5
[12]; rate 0.0620 kg/ha
  GLXMAW herbicidal rating: 4.0
[13]; rate 0.0080 kg/ha
  MOOVA herbicidal rating: 9.0
[13]; rate 0.0320 kg/ha
  MOOVA herbicidal rating: 7.0
[13]; rate 0.1250 kg/ha
  herbicidal rating, MOOVA: 9.0
[14]; rate 0.0320 kg/ha
  ABUTH herbicidal rating: 9.0
[14]; rate 0.0620 kg/ha
  ABUTH herbicidal rating: 9.0
ZEAMX (Corn, Field); rate 0.0620 kg/ha
  Preemergence herbicidal rating ZEAMX: 0.0
ZEAMX (Corn, Field); rate 0.1250 kg/ha
  Preemergence herbicidal rating ZEAMX: 3.0
ZEAMX (Corn, Field); rate 0.2500 kg/ha
  Preemergence herbicidal rating ZEAMX: 3.0

## Cn1c(C(F)(F)F)cc(=O)n(-c2ccc3snc(C4OCC(C[S+](C)[O-])O4)c3c2)c1=O (stereo not shown) [Compound 88, 1-methyl-3-[3-[4-[(methylsulfinyl)methyl]-1,3-dioxolan-2-yl]-1,2-benzisothiazol-5-yl]-6-(trifluoromethyl)uracil]
SETVI (Setaria viridis) [1]; rate 0.0320 kg/ha
  SETVI herbicidal rating: 9.0
SETVI (Setaria viridis) [1]; rate 0.0620 kg/ha
  SETVI herbicidal rating: 9.0
[2]; rate 0.0320 kg/ha
  IPOHE herbicidal rating: 9.0
[2]; rate 0.0620 kg/ha
  IPOHE herbicidal rating: 9.0
[3]; rate 0.0620 kg/ha
  Preemergence herbicidal rating ABUTH: 9.0
[3]; rate 0.1250 kg/ha
  Preemergence herbicidal rating ABUTH: 9.0
[3]; rate 0.2500 kg/ha
  Preemergence herbicidal rating ABUTH: 9.0
[4]; rate 0.0620 kg/ha
  Preemergence herbicidal rating ECHCG: 5.5
[4]; rate 0.1250 kg/ha
  Preemergence herbicidal rating ECHCG: 6.5
[4]; rate 0.2500 kg/ha
  Preemergence herbicidal rating ECHCG: 9.0
SETVI (Setaria viridis) [5]; rate 0.0620 kg/ha
  Preemergence herbicidal rating SETVI: 5.5
SETVI (Setaria viridis) [5]; rate 0.1250 kg/ha
  Preemergence herbicidal rating SETVI: 9.0
SETVI (Setaria viridis) [5]; rate 0.2500 kg/ha
  Preemergence herbicidal rating SETVI: 9.0
GALAP (Galium aparine) [6]; rate 0.0620 kg/ha
  Preemergence herbicidal rating GALAP: 7.0
GALAP (Galium aparine) [6]; rate 0.1250 kg/ha
  Preemergence herbicidal rating GALAP: 9.0
GALAP (Galium aparine) [6]; rate 0.2500 kg/ha
  Preemergence herbicidal rating GALAP: 9.0
GALAP (Galium aparine) [7]; rate 0.0320 kg/ha
  GALAP herbicidal rating: 9.0
GALAP (Galium aparine) [7]; rate 0.0620 kg/ha
  GALAP herbicidal rating: 9.0
[8]; rate 0.0620 kg/ha
  Preemergence herbicidal rating CASOB: 5.0
[8]; rate 0.1250 kg/ha
  Preemergence herbicidal rating CASOB: 9.0
[8]; rate 0.2500 kg/ha
  Preemergence herbicidal rating CASOB: 9.0
[9]; rate 0.0620 kg/ha
  Preemergence herbicidal rating CHEAL: 9.0
[9]; rate 0.1250 kg/ha
  Preemergence herbicidal rating CHEAL: 9.0
[9]; rate 0.2500 kg/ha
  Preemergence herbicidal rating CHEAL: 9.0
[10]; rate 0.0620 kg/ha
  Preemergence herbicidal rating AMBEL: 9.0
[10]; rate 0.1250 kg/ha
  Preemergence herbicidal rating AMBEL: 9.0
[10]; rate 0.2500 kg/ha
  Preemergence herbicidal rating AMBEL: 9.0
[11]; rate 0.0320 kg/ha
  TRZAWR herbicidal rating: 3.0
[11]; rate 0.0620 kg/ha
  TRZAWR herbicidal rating: 3.5
ORYSAT (Rice, Tebonnet); rate 0.0320 kg/ha
  ORYSAT herbicidal rating (transplanted rice tolerance): 0.0
ORYSAT (Rice, Tebonnet); rate 0.1250 kg/ha
  ORYSAT herbicidal rating (transplanted rice tolerance): 5.0
[12]; rate 0.0320 kg/ha
  GLXMAW herbicidal rating: 9.0
[12]; rate 0.0620 kg/ha
  GLXMAW herbicidal rating: 9.0
[13]; rate 0.0320 kg/ha
  MOOVA herbicidal rating: 0.0
[13]; rate 0.1250 kg/ha
  MOOVA herbicidal rating: 9.0
[14]; rate 0.0320 kg/ha
  ABUTH herbicidal rating: 9.0
[14]; rate 0.0620 kg/ha
  ABUTH herbicidal rating: 9.0
ZEAMX (Corn, Field); rate 0.0620 kg/ha
  Preemergence herbicidal rating ZEAMX: 3.5
ZEAMX (Corn, Field); rate 0.1250 kg/ha
  Preemergence herbicidal rating ZEAMX: 6.0
ZEAMX (Corn, Field); rate 0.2500 kg/ha
  Preemergence herbicidal rating ZEAMX: 7.0
